Results on two compounds are retold here after patent US20250129054A1 (Terran Biosciences Inc., priority 2022, published 2025).

For data set [1], the system named is post-traumatic stress disorder (PTSD). In words: Double-blind, randomized, placebo-controlled clinical trial of methylone-assisted psychotherapy in PTSD. The data set is classed as in vivo, human. The conditions noted are these: at Study Conclusion; for clinician-rated functional impairment score as measured by SDS / depression as measured by HAM-D: compared to placebo-treated controls; for change in CAPS-5 assessment: with psychotherapy, compared to the placebo group, PTSD participants. Here is the method: A multicenter, randomized, double-blind, placebo-controlled trial is conducted to assess the efficacy and safety of methylone-assisted psychotherapy versus psychotherapy with placebo control in participants diagnosed with at least moderate post-traumatic stress disorder (PTSD).
This multicenter, randomized, double-blind, placebo-controlled trial is conducted at various sites in the United States with IRB approval from each study site. A flexible dose of methylone hydrochloride salt or placebo, followed by a supplemental half-dose unless contraindicated by patient's previous response or medical history, is also administered during the Treatment Period with psychotherapy in at least 3 blinded monthly Experimental Sessions. The Supplemental Dose extends the duration of drug effects on the participants during an Experimental Session. Methylone test groups are further subdivided into specific groups receiving only racemic methylone hydrochloride salt, S-methylone hydrochloride salt, or R-methylone hydrochloride salt. An optional Risk Evaluation and Mitigation Strategy (REMS) Protocol may be implemented for the racemic methylone, S-methylone, and placebo-groups. The Treatment Period lasts for approximately 12 weeks. During the Treatment Period, each Experimental Session is followed by three Intervening Sessions of non-drug psychotherapy. Each Experimental Session involves an overnight stay. The Primary Outcome measure, the change in Clinician Administered PTSD Scale for DSM-5 (CAPS-5), is determined by a blinded Independent Rater (IR) pool multiple times throughout the study. The study consists of separate periods for each participant. Initially, prospective participants undergo a Screening Period involving an initial eligibility assessment, a medical history intake, informed consent, and enrollment of eligible participants. Next, a Preparation Period is undertaken for enrolled participants involving medication tapering and clinical baseline assessments to confirm each participant meets enrollment criteria. As part of the Preparation Period, a detailed assessment of co-morbidities to PTSD is recorded. Participants may remain on prescribed courses of selective serotonin reuptake inhibitor (SSRI) or serotonin and norepinephrine reuptake inhibitor (SNRI) treatment. Dosages and/or frequency of administration of a prescribed SSRI or SNRI may be adjusted to fit within study parameters. Participants may be required to taper a prescribed course of medication in order to maintain eligibility within the study. The Treatment Period consists of three monthly Experimental Sessions and associated Intervening Sessions of integrative behavioral psychotherapy. The Treatment Period lasts approximately 12 weeks. Following the Treatment Period is a Follow-up Period and Study Conclusion. During the Follow-up Period and Study Conclusion, participants complete 4 weeks with no study visits, followed by a Study Conclusion visit.
This study compares the effects of three blinded Experimental Sessions of psychotherapy in combination with flexible doses of methylone or placebo administered as described below. Non-drug preparatory and intervening psychotherapy sessions are also included. Patient's weight is determined for dosage calculation. Initial dose is 100 mg unless this will result in a dosage of less than 1.5 mg/kg of patient weight. Initial dose thereby adjusted upward in 25 mg increments to deliver the lowest dose possible of at least 1.5 mg/kg of patient weight. Initial dose for Experimental Session 2 and 3 is cumulative dose calculated by adding the initial dose plus REMS protocol dose used the previous Experimental Session for each patient.
Randomization occurs prior to the initiation of Experimental Session 1. Each participant is provided the next randomized number in a sequence by a blinded study monitor. […]

Data set [2] relates to rat elevated zero maze model of anxiety. Nature of the data set: Rat elevated zero maze model of anxiety (% time on open areas, stretched attend postures). The data set is classed as in vivo, Sprague-Dawley rats. To be noted: for anxiogenic effect: across the doses tested, ip. The source says:
The rat zero-maze model is a refined alternative to the plus-maze, the most widely used animal model of anxiety, and consists of an elevated annular platform, divided equally into four quadrants. Two opposite quadrants are enclosed by Perspex walls on both the inner and the outer edges of the platform, while the remaining two opposite quadrants are open being enclosed only by a Perspex “lip”. Animals will show a preference for the closed areas, and avoidance of the open sections is assumed to stem from a rodent's natural aversion to open, exposed spaces. The primary index of anxiety, which reflect changes in open arm preference, is the percentage of time spent on the open areas. A reduction in the amount of activity on the open areas is considered to reflect an increase in anxiety. Other, ethologically-based behaviours are also assessed as indices of anxiety. One of the most important is stretched attend postures (SAP) from closed to open quadrants. […] Shepherd, J K; et al., (1994) Behavioural and pharmacological validation of the elevated “zero-maze” as an animal model of anxiety. Psychopharmacol., 116:56-64.
Male Sprague-Dawley 200-250 g (Envigo UK) rats were used. Animals were group-housed (5 per cage; cage size: 40×40×20 cm) in a temperature-controlled environment (22±2° C.), under a 12 h light-dark cycle (lights on: 08:00 hours) for one week prior to testing. Food and water were freely available. Number of animals per group=5. Animals were moved into the experimental room 16-24 hours before testing.
The elevated 0-maze comprises a black Perspex annular platform (105 cm diameter, 10 cm width) elevated to 65 cm above ground level, divided equally into four quadrants. Two opposite quadrants are enclosed by clear red Perspex walls (27 cm high) on both the inner and outer edges of the platform, while the remaining two opposite quadrants are surrounded only by a Perspex “lip” (1 cm high) which serves as a tactile guide to animals on these open areas.
Subjects were weighed and tail marked before being injected. After a specified pre-treatment time, subjects were placed in a closed quadrant and a 5-min test period were recorded on videotape for subsequent analysis. The maze were cleaned with 5% methanol/water solution and dried thoroughly between test sessions. Behavioural measures comprise percentage time spent on the open areas (% TO) and frequency of stretched attend postures (SAP) from closed to open quadrants. Since the control groups were all treated identically with the same vehicle these were combined to increase power. The Chlordiazepoxide groups were also treated identically with the same dose so these were also combined to increase power. Animals are scored as being in the open area when all four paws were in an open quadrant and in the closed area only when all four paws have passed over the open-closed divide. All testing were carried out between 9.00 and 16.00 hours.
For each study, a 1-way ANOVA was conducted across vehicle, CDP, and drug treatment groups. Each group was compared to the vehicle group and a p-value for treatment determined by Fishers Least Significant Difference (LSD) test. This analysis was performed in GraphPad Prism (Version 9).
Intraperitoneal (IP): Racemic methylone HCl was formulated in Vehicle 1 (Saline) for injection to concentrations of 1, 3 and 6 mg/mL to provide doses of 5, 15 and 30 mg/kg when administered ip in 5 mL/kg dosing volumes.
Intraperitoneal (IP): S-methylone HCl was formulated in Vehicle 1 (Saline) for injection to concentrations of 0.5, 1, 1.5, 3 and 6 mg/mL to provide doses of 2.5, 5, 7.5, 15 and 30 mg/kg when administered ip in 5 mL/kg dosing volumes.
Intraperitoneal (IP): R-methylone HCl was formulated in Vehicle 1 (Saline) for injection to concentrations of 1, 3 and 6 mg/mL to provide doses of 5, 15 and 30 mg/kg when administered ip in 5 mL/kg dosing volumes. […]

[3] abbreviates: 30 mg/kg ip, 30 min pretreatment, vs vehicle and chlordiazepoxide 6 mg/kg, male SD rats.
[4] abbreviates: dose response over 5, 15 and 30 mg/kg ip, male SD rats.
Setting [5] is: specific (sufficient) doses ip, compared with chlordiazepoxide 6 mg/kg.

As for `CN[C@H](C)C(=O)c1ccc2c(c1)OCO2` [R-methylone], in data set [1], the “daytime sleepiness as measured by ESS” value was “significant improvement in lessening daytime sleepiness”, the “clinician-rated functional impairment score as measured by SDS” value is listed as “significant improvement”, the “depression as measured by HAM-D” value is recorded as “significant improvement” and the “change in CAPS-5 assessment” value was “significant mean reduction”. In data set [2] (setting [3]), the “frequency of SAPs” value is given as “significantly decreasing SAPs to the same level as chlordiazepoxide” and the “time spent in the open arms” value is listed as “as effective as chlordiazepoxide”. In data set [2] (male SD rats), the anxiogenic effect entry is on record as “did not show any anxiogenic effect at any dose”. Also, in data set [2] (setting [4]), the “frequency of SAPs” value is “dose dependent decrease in SAPs” and the “time spent in the open arms” value is reported as “dose dependent increase in time spent in the open arms”. In data set [2] (setting [5]), the “frequency of SAPs” value is listed as “decreased the frequency of SAPs as effectively as the benzodiazepine chlordiazepoxide” and the “time in the open arms” value is recorded as “increase time in the open arms”.

With `CN[C@@H](C)C(=O)c1ccc2c(c1)OCO2` [S-methylone], in data set [1], the “daytime sleepiness as measured by ESS” value is recorded as “significant improvement in lessening daytime sleepiness”, the “clinician-rated functional impairment score as measured by SDS” value is “significant improvement”, the “depression as measured by HAM-D” value is “significant improvement” and the “change in CAPS-5 assessment” value is “significant mean reduction”. Besides, the “frequency of SAPs” value in data set [2] (2.5 mg/kg and 5 mg/kg ip, male SD rats) is “dose dependent increase in SAPs”. In addition, the “frequency of SAPs” value in data set [2] (7.5 mg/kg, 15 mg/kg and 30 mg/kg ip, male SD rats) is given as “dose dependent decrease in SAPS”. In addition, in data set [2] (setting [3]), the “frequency of SAPs” value is recorded as “even more effective than chlordiazepoxide at reducing SAPs” and the “time spent in the open arms” value is listed as “the time in the open arms increased”. Also, the anxiogenic effect entry in data set [2] (male SD rats) was “show anxiogenic effects at lower doses”. For the same compound, in data set [2] (setting [5]), the “frequency of SAPs” value is listed as “decreased the frequency of SAPs as effectively as the benzodiazepine chlordiazepoxide” and the “time in the open arms” value is reported as “increase time in the open arms”. Further, in data set [2] (trend over 5 mg/kg, 7.5 mg/kg and 15 mg/kg ip, male SD rats), the “time spent in the open arms” value is reported as “the time spent in the open arms decreased as the dose increased”.
